Counter-ions that a name gives are not always drawn. Like-named read-outs stand apart in the source and are kept apart here.
Legend:
Assay type in all cases: cell-based, human
A549 cells = assay: CCK-8 anti-proliferative assay, A549; conditions: Table 16, comparative compounds 8-1 to 8-23, co-incubated 48 h, read-out: Anti-proliferative activity (IC50 ± standard deviation) A549
Protocol: (§1) The obtained quinazolinyl-aryl urea derivatives were screened for compounds with optimal activity using the following method.
(§2) Experimental Procedure for Anti-Proliferative Activity Evaluation: The CCK-8 assay was employed. Cells in logarithmic growth phase were harvested, adjusted to appropriate density, and uniformly seeded into 96-well plates using a multichannel pipette (180 μL cell suspension containing complete medium per well, 5,000 cells/well). Blank control wells (containing basal medium, CCK-8 solution, and DMSO only) were set. Cells were incubated at 37° C. under 5% CO2. After 70% confluency was reached, test compounds (target compounds/positive controls) were added at final concentrations of 1, 2, 4, 6, 8, 12, 16, 24, and 30 μM (3 repeated wells per concentration). Compounds were pre-dissolved in DMSO, sterilized, and diluted with medium before adding 20 μL/well. After co-incubation for designated durations, 10 μL CCK-8 solution was added per well followed by 1-4 h incubation (different cells have different incubation times). […] Inhibition rates were calculated as: (ODcontrol−ODtreatment)/ODcontrol×100%. Median inhibitory concentrations (IC50 values) were derived using Origin v8.0 software.

MCF-7 cells = assay: CCK-8 anti-proliferative assay, MCF-7; conditions: Table 16, comparative compounds 8-1 to 8-23, co-incubated 48 h, read-out: Anti-proliferative activity (IC50 ± standard deviation) MCF-7
Protocol: as §1, §2

Hep G2 cells = assay: CCK-8 anti-proliferative assay, Hep G2
From the text: (§3) The obtained quinazolinyl-aryl urea derivatives were screened for compounds with optimal activity using the following method. All cell lines employed in this experiment were of human origin, including: bladder cancer cells: J82, UM-UC-3, T24, 5637, pancreatic cancer cells: BxPC-3, PANC-1, osteosarcoma cells: 143B, MG-63, cervical cancer cells: HeLa, breast cancer cells: MCF-7, NSCLC cells: A549, hepatoblastoma cells: Hep G2, and ovarian cancer cells: SK-OV-3, as well as normal cell lines: immortalized ureteral epithelial cells (SV-HUC-1), embryonic lung fibroblasts (WI-38).
(§4) Experimental Procedure for Anti-Proliferative Activity Evaluation: The CCK-8 assay was employed. Cells in logarithmic growth phase were harvested, adjusted to appropriate density, and uniformly seeded into 96-well plates using a multichannel pipette (180 μL cell suspension containing complete medium per well, 5,000 cells/well). Blank control wells (containing basal medium, CCK-8 solution, and DMSO only) were set. Cells were incubated at 37° C. under 5% CO2. After 70% confluency was reached, test compounds (target compounds/positive controls) were added at final concentrations of 1, 2, 4, 6, 8, 12, 16, 24, and 30 μM (3 repeated wells per concentration). Compounds were pre-dissolved in DMSO, sterilized, and diluted with medium before adding 20 μL/well. After co-incubation for designated durations, 10 μL CCK-8 solution was added per well followed by 1-4 h incubation (different cells have different incubation times). The reaction was terminated, and OD (optical density) values at 450 nm were measured using a microplate reader. Inhibition rates were calculated as: (ODcontrol−ODtreatment)/ODcontrol×100%. Median inhibitory concentrations (IC50 values) were derived using Origin v8.0 software.

5637 cells = assay: CCK-8 anti-proliferative assay, 5637; conditions: Table 16, comparative compounds 8-1 to 8-23, co-incubated 48 h, read-out: Anti-proliferative activity (IC50 ± standard deviation) 5637
Protocol: as §1, §2

T24 cells = assay: CCK-8 anti-proliferative assay, T24; conditions: Table 16, comparative compounds 8-1 to 8-23, co-incubated 48 h, read-out: Anti-proliferative activity (IC50 ± standard deviation) T24
From the text: as §3, §4

PANC-1 cells = assay: CCK-8 anti-proliferative assay, PANC-1; conditions: Homo sapiens, PANC-1; Table 7; co-incubated 48 h; read-out: Anti-proliferative activity (IC50 ± standard deviation) PANC-1
From the text: as §3, §4

BxPC-3 cells = assay: CCK-8 anti-proliferative assay, BxPC-3; conditions: Homo sapiens, BXPC-3; Table 7; co-incubated 48 h; read-out: Anti-proliferative activity (IC50 ± standard deviation) BxPC-3
From the text: as §3, §4

[1] = Homo sapiens, HepG2, Table 16, comparative compounds 8-1 to 8-23, co-incubated 48 h, read-out: Anti-proliferative activity (IC50 ± standard deviation) Hep G2
[2] = Table 16, comparative compounds 8-1 to 8-23, co-incubated 48 h, read-out: Anti-proliferative activity (IC50 ± standard deviation) Hep G2

| IC50 (A549 cells; Homo sapiens, A549) [µM] | IC50 (MCF-7 cells; Homo sapiens, MCF7) [µM] | IC50 (T24 cells; Homo sapiens, T-24) [µM] | IC50 (A549 cells) [µM] | IC50 (MCF-7 cells) [µM] | IC50 (T24 cells) [µM] | IC50 (PANC-1 cells) [µM] | IC50 (BxPC-3 cells) [µM] | Structure (SMILES) | IC50 (Hep G2 cells; [1]) [µM] | IC50 (5637 cells; Homo sapiens) [µM] | IC50 (Hep G2 cells; [2]) [µM] | IC50 (5637 cells) [µM] | IC50 (Hep G2 cells; Homo sapiens, HepG2, read-out: IC50 on Hep G2) [µM] |
| --- | --- | --- | --- | --- | --- | --- | --- | --- | --- | --- | --- | --- | --- |
| 22.2 ± 1.15 | 18.5 ± 0.63 | 27.1 ± 0.33 |  |  |  |  |  | COc1cc2ncnc(NCc3cccc(NC(=O)Nc4ccc(C)cc4C)c3)c2cc1OCCCC(=O)N1CCC(N2CCOCC2)CC1 [Compound 8-4, reference compound] | > 30 | 14 ± 0.66 |  |  |  |
| 20.2 ± 0.92 | 18.6 ± 0.35 | 23.1 ± 0.73 |  |  |  |  |  | COc1cc2ncnc(NCc3cccc(NC(=O)Nc4ccccc4Cl)c3)c2cc1OCCCC(=O)N1CCC(N2CCOCC2)CC1 [Compound 8-14, reference compound] | > 30 | 28.9 ± 0.53 |  |  |  |
| > 30 | 23.1 ± 0.92 | > 30 |  |  |  |  |  | COc1cc2ncnc(NCc3cccc(NC(=O)NCc4ccccc4)c3)c2cc1OCCCC(=O)N1CCC(N2CCOCC2)CC1 [Compound 8-23, reference compound] | > 30 | 26.8 ± 0.63 |  |  |  |
| > 30 | 16.5 ± 0.64 | > 30 |  |  |  |  |  | COc1cc2ncnc(NCc3cccc(NC(=O)Nc4ccccc4C)c3)c2cc1OCCCC(=O)N1CCC(N2CCOCC2)CC1 [Compound 8-2, reference compound] | > 30 | 25.9 ± 1.32 |  |  |  |
| > 30 | 19.3 ± 0.56 | 18.7 ± 0.38 |  |  |  |  |  | COc1ccccc1NC(=O)Nc1cccc(CNc2ncnc3cc(OC)c(OCCCC(=O)N4CCC(N5CCOCC5)CC4)cc23)c1 [Compound 8-10, reference compound] | 28.8 ± 0.58 | 16.9 ± 0.64 |  |  |  |
| > 30 | 18.3 ± 0.53 | 18.8 ± 0.49 |  |  |  |  |  | COc1cc2ncnc(NCc3cccc(NC(=O)Nc4ccccc4)c3)c2cc1OCCCC(=O)N1CCC(N2CCOCC2)CC1 [Compound 8-1, reference compound] | 28.2 ± 0.49 | 26.2 ± 0.98 |  |  |  |
| > 30 | > 30 | 19.4 ± 0.44 |  |  |  |  |  | CCc1ccccc1NC(=O)Nc1cccc(CNc2ncnc3cc(OC)c(OCCCC(=O)N4CCC(N5CCOCC5)CC4)cc23)c1 [Compound 8-6, reference compound] | > 30 | 27.5 ± 0.94 |  |  |  |
| 13.8 ± 0.35 | 16.8 ± 0.32 | 19.1 ± 0.53 |  |  |  |  |  | COc1cc2ncnc(NCc3cccc(NC(=O)Nc4ccc(Cl)cc4)c3)c2cc1OCCCC(=O)N1CCC(N2CCOCC2)CC1 [Compound 8-15, reference compound] | > 30 | 14 ± 0.72 |  |  |  |

The next lines start with the compound.

| Structure (SMILES) | IC50 (A549 cells; Homo sapiens, A549) [µM] | IC50 (MCF-7 cells; Homo sapiens, MCF7) [µM] | IC50 (T24 cells; Homo sapiens, T-24) [µM] | IC50 (A549 cells) [µM] | IC50 (MCF-7 cells) [µM] | IC50 (T24 cells) [µM] | IC50 (PANC-1 cells) [µM] | IC50 (BxPC-3 cells) [µM] | IC50 (Hep G2 cells; [1]) [µM] | IC50 (5637 cells; Homo sapiens) [µM] | IC50 (Hep G2 cells; [2]) [µM] | IC50 (5637 cells) [µM] | IC50 (Hep G2 cells; Homo sapiens, HepG2, read-out: IC50 on Hep G2) [µM] |
| --- | --- | --- | --- | --- | --- | --- | --- | --- | --- | --- | --- | --- | --- |
| CCc1cccc(CC)c1NC(=O)Nc1cccc(CNc2ncnc3cc(OC)c(OCCCC(=O)N4CCC(N5CCOCC5)CC4)cc23)c1 [Compound 8-7, reference compound] | > 30 | > 30 | 18.6 ± 0.53 |  |  |  |  |  | 24.2 ± 0.53 | 13.9 ± 0.68 |  |  |  |
| COc1cc2ncnc(NCc3cccc(NC(=O)Nc4c(Cl)cc(Cl)cc4Cl)c3)c2cc1OCCCC(=O)N1CCC(N2CCOCC2)CC1 [Compound 8-16, reference compound] | > 50 | 15.9 ± 0.62 | > 30 |  |  |  |  |  | > 30 | > 30 |  |  |  |
| COc1cc2ncnc(NCc3cccc(NC(=O)Nc4ccc(C)cc4)c3)c2cc1OCCCC(=O)N1CCC(N2CCOCC2)CC1 [Compound 8-3, reference compound] | 24.1 ± 0.95 | 23.2 ± 0.35 | 20.6 ± 0.68 |  |  |  |  |  | > 30 | > 30 |  |  |  |
| COc1cc2ncnc(NCc3cccc(NC(=O)Nc4ccccc4Cl)c3)c2cc1OCCCCCCN1CCC(CN2CCN(c3ccccn3)CC2)CC1 [Compound 8-20, reference compound] |  |  |  | 22.4 ± 1.01 | 20.5 ± 0.38 | 18.4 ± 0.81 |  |  |  |  | > 30 | 14.1 ± 0.29 |  |
| COc1cc2ncnc(NCc3cccc(NC(=O)Nc4cc(C)cc(C)c4)c3)c2cc1OCCCC(=O)N1CCC(N2CCOCC2)CC1 [Compound 8-5, reference compound] | 21 ± 0.87 | 21.3 ± 0.42 | 23.2 ± 0.54 |  |  |  |  |  | > 30 | 21.7 ± 0.51 |  |  |  |
| COc1cc2ncnc(NCc3cccc(NC(=O)Nc4ccc(C(C)C)cc4)c3)c2cc1OCCCC(=O)N1CCC(N2CCOCC2)CC1 [Compound 8-8, reference compound] | 18.3 ± 0.29 | 10 ± 0.19 | 7.73 ± 0.23 |  |  |  |  |  | 17.7 ± 0.46 | 7.6 ± 0.18 |  |  |  |
| COc1cc2ncnc(NCc3cccc(NC(=O)Nc4ccc(F)c(C(F)(F)F)c4)c3)c2cc1OCCCC(=O)N1CCC(N2CCOCC2)CC1 [Compound 8-19, reference compound] | 16.1 ± 0.71 | 22.4 ± 0.82 | 26.2 ± 0.94 |  |  |  |  |  | > 30 | 17.9 ± 0.45 |  |  |  |
| COc1cc2ncnc(NCc3cccc(NC(=O)Nc4ccc(F)cc4)c3)c2cc1OCCCCCCN1CCN(CCN2CCOCC2)CC1 [Compound 8-11, reference compound] |  |  |  | > 30 | 18.3 ± 0.43 | 23.3 ± 1.82 |  |  |  |  | > 30 | 17.9 ± 0.33 |  |
| COc1cc2ncnc(NCc3cccc(NC(=O)Nc4ccc(F)cc4)c3)c2cc1OCCCC(=O)N1CCC(N2CCOCC2)CC1 [Compound 8-13, reference compound] | > 30 | 21.5 ± 0.47 | 19.5 ± 0.27 |  |  |  |  |  | > 30 | 13.9 ± 0.43 |  |  |  |
| C#Cc1cccc(Nc2ncnc3cc(OCCOC)c(OCCOC)cc23)c1 [Erlo, erlotinib hydrochloride, reference compound] |  |  |  |  |  |  | 27.4 ± 1.77 | 18.3 ± 1.46 |  |  |  |  |  |
| COc1cc2ncnc(NCc3cccc(NC(=O)Nc4ccc(C(F)(F)F)cc4)c3)c2cc1OCCCC(=O)N1CCC(N2CCOCC2)CC1 [Compound 8-18, reference compound] | 18.8 ± 0.59 | 13.2 ± 0.39 | 19.6 ± 0.45 |  |  |  |  |  | > 30 | 13.1 ± 0.24 |  |  |  |
| COc1cc2ncnc(NCc3cccc(NC(=O)Nc4ccc(C(C)(C)C)cc4)c3)c2cc1OCCCC(=O)N1CCC(N2CCOCC2)CC1 [Compound 8-9, reference compound] | 12.5 ± 0.37 | 6.55 ± 0.13 | 4.54 ± 0.04 |  |  |  |  |  | 12.2 ± 0.17 | 6.25 ± 0.06 |  |  | 12.2 ± 0.17 |
| COc1ccc(NC(=O)Nc2cccc(CNc3ncnc4cc(OC)c(OCCCCCCN5CCC(CN6CCN(c7ccccn7)CC6)CC5)cc34)c2)cc1 [Compound 8-21, reference compound] |  |  |  | 11.9 ± 0.23 | 12.2 ± 0.32 | 5.42 ± 0.05 |  |  |  |  | 14.1 ± 0.2 | 6.61 ± 0.07 |  |
